Data published in patent US9433663B2, “Mobilization of hematopoietic stem cells” (Children's Hospital Medical Center, priority 2008, dated 2016).

Experiments:
Rac1 = biological target: T1, Rac1 (Mus musculus, UniProt P63001); assay: Rho GTPase effector pull-down in murine LDBM cells, Rac1; assay type: cell-based; conditions: parallel pull-down assay
T1 construct: endogenous in cells; host or cells: murine LDBM cells
Procedure: To analyze the effects of CASIN on the formation of active GTP-bound Cdc42, RhoA, and Rac1, effector pulldown assays were carried out as described previously. Cdc42GAP^−/− MEF, LDBM, CD34^+ hCB cells were treated with CASIN at doses of 5-20 μM in parallel with vehicle control for 2 hrs after overnight starvation, and stimulated with cytokines subsequently. And then cells were lysed in a buffer containing 20 mM Tris-HCL (pH 7.6), 100 mM NaCl, 1% Triton X-100, 10 mM MgCl2, 2 mM NaF, and Protease inhibitor cocktail (Roche Diagnostics). Lysates were incubated with GST-P21-binding domain of PAK1 for RAC1-GTP and Cdc42-GTP, and GST-RBD domain of Rhotekin for RhoA-GTP respectively. Both bound- and unbound-form of Rho GTPases were probed by immunoblotting with antibodies specific for Rac1 (BD biosciences), Cdc42 (BD biosciences), and RhoA (cell signaling).

LDBM cells = assay: CFU-adhesion assay of LDBM cells on fibronectin; assay type: cell-based, murine
Text: To shed light on potential roles of CASIN in HSPC mobilization, the effects of CASIN on Cdc42-related cellular functions was studied, including adhesion, migration, and F-actin polymerization of progenitor cells in 32D myeloid progenitors. […] SDF-1α stimulation causes a reorganization of F-actin into a cortical ring around the cells. […] Thirdly, to gain further insight into cellular specificity and efficacy of CASIN, and also to rule out possible toxic effects by CASIN, Cdc42-involved BM progenitor cell functions were examined, including proliferation, adhesion, migration, and F-actin polymerization, in Cdc42^+/+ cells in parallel with Cdc42^−/− cells. In line with additional studies in a Cdc42 conditional knockout mouse model as described herein, Cdc42^−/− LDBM cells have increased CFU-forming progenitors compared to those of Cdc42^+/+.
Murine LDBM cells from Cdc42^+/+ as well as Cdc42^−/− mice were used for CFU-adhesion/migration experiments as described previously. Briefly, for adhesion experiment, in the presence or absence of prior CASIN treatment at doses of 5 and 10 μM, 10^5 cells were plated onto each well of 48-well plates pre-coated with fibronectin fragment CH296, which contains integrin α4β1-binding site. Adherent cells then were harvested by cells dissociation buffer (Gibco, Carlsbad, Calif.), and further plated in CFU assay. […]

N-RasMA93 cells = assay: directional migration of N-RasMA93 leukemia cells towards SDF-1α (transwell); assay type: cell-based, human; conditions: in vitro
Procedure: FIG. 5B. Migration of leukemia cells towards SDF-1α without or with CASIN pre-treatment at doses of 5 and 10 μM was determined by transwell assays.
Like normal HSCs, their malignant counterpart, leukemia initiating cells (LICs) reside in their BM niches that provide the structural and physiological conditions supporting their survival and growth. LICs are resistant to traditional chemotherapy by interacting with their BM microenvironment, which are the culprits of leukemia relapses after a period of remission induced by chemotherapy. Detachment of LICs from their niche by CASIN would be a valuable supplementary therapy to the traditional cancer therapies (e.g., chemotherapies). First of all, in vitro effects of CASIN were examined in adhesion, migration, and F-actin polymerization of LICs, each of which is independently important for the retention of LICs in BM niches. Retroviral transduction of an MLL-AF9 fusion cDNA together with N-Ras oncogene into normal human CD34^+cord blood cells led to the establishment of cultures of N-Ras-MA93 cells that can initiate acute myeloid leukemia in NOG mice. […] To address it, a human AML model was set up by transplanting N-RasMA93 cells into NOG mice intravenously.

murine HSCs = assay: Example 7 competitive repopulating assay of mobilized HSCs; assay type: in vivo, mice; conditions: competitive repopulating experiments, CASIN-mobilized C57Bl/6 donors
Text: Although mobilization of HPC may be of use for short-term repopulation in a transplant setting, HSCs are required for long-term repopulation. To assess mobilization effect of CASIN on murine HSCs, a competitive repopulating assay is used. Basically, donor cells are harvested from peripheral blood of C57Bl/6 mice (CD45.2) after mobilization with CASIN or control medium. BM cells from nonirradiated B6.BoyJ (CD45.1) mice are served as competitor cells. Dilutions of donor blood cells from mobilized C57Bl/6 mice that contain long-term repopulating (LTR) cells compete with marrow cells of recipient B6.BoyJ mice at ratio of 3:1, 2:1, and 1:1 for engraftment in lethally-irradiated recipients. Donor chimerism is assessed using CD45 congenic markers by flow cytometry at 1, 2, 3, and 4 months posttransplantation. […] Donor chimerism again is assessed in the secondary mice based on the CD45 congenic markers.
The mobilization effect of CASIN on HSCs in comparison or combination with G-CSF is assessed under the following four mobilization groups: (1) Control medium mobilization group; (2) CASIN mobilization group; (3) G-CSF mobilization group (G-CSF: twice a day for 2 days); (4) CASIN plus G-CSF (twice a day for 2 days) mobilization group. […] The mobilization effects under different groups are analyzed based on the chimerism of donor-derived cells.

donor cell engraftment = assay: Example 9 mobilization as preparative regimen for HSC transplantation; assay type: in vivo, mice
Procedure: If the microenvironmental niches are vacated after CASIN exposure, donor HSCs might engraft better in hosts treated with a mobilizing agent such as CASIN compared with non-mobilized controls. To test this, bone marrow transplantation is performed on recipient mice which are pre-conditioned with CASIN. […] Additionally, AMD3100, G-CSF, and control medium are used in parallel with CASIN as controls.
Briefly, mice are treated with CASIN, and 4×10^7 donor bone marrow cells from congenic mouse strain are transplanted 48 h later. Donor cell engraftment is assayed at 3 months using the congenic markers by flow cytometry.
Additionally, multiple cycles of mobilization with CASIN may increase the number of available niches. Therefore, this study investigates whether repeated cycles of CASIN mobilization, each followed by donor cell transplantation, could result in increased engraftment. Briefly, mice receive one weekly injection of CASIN on 3 consecutive weeks and 4×10^7 donor marrow cells are transplanted 48 hours after each mobilization. Control animals also received 3 weekly infusions of 4×10^7 donor marrow cells but no CASIN. And the donor engraftment is assayed at 3 months after transplantation as well.

Structure (SMILES): OCCNC1CCCc2c1[nH]c1ccc(-c3ccccc3)cc21 (stereo not shown) [CASIN]
- Rac1 activity (Rac1): no effects
- adhesion of colony-forming progenitors to fibronectin surface (LDBM cells; Cdc42^+/+ LDBM cells): dose-dependently inhibited
- adhesion activity of Cdc42^−/− cells (LDBM cells; Cdc42^−/− LDBM cells): did not have additive effects
- directional migration capacity of N-RasMA93 cells (N-RasMA93 cells): significantly impaired
- engraftment of donor derived cells in recipient B6.BoyJ mice (murine HSCs): significant engraftment of donor derived cells in a dilution-dependent pattern
- engraftment with 3-cycle administration and subsequent transplantation (donor cell engraftment; 3 weekly cycles): further improved compared to one cycle
- engraftment of donor cells in pre-conditioned recipients (donor cell engraftment; compared to the non-mobilization control): significantly increased engraftment of donor cells
